Measurements from PMC7016953 (Cells, 2020).

Columns and labels:
[1] = system: T1, heteromeric TRPC3:TRPC6 channel complexes; experiment: Fluo-4 Ca2+ influx assay in HEK293 cells co-expressing TRPC3 and TRPC6; type: cell-based; conditions: fluo-4 concentration response analysis
T1 construct: expressed in transfected cells; host or cells: HEK293, stably co-transfected
Protocol: All fluorometric Ca^2+ assays were done in (4-(2-hydroxyethyl)-1-piperazineethanesulfonic acid) (HEPES)-buffered saline (HBS), containing 132 mM NaCl, 6 mM KCl, 1 mM MgCl2, 1 mM CaCl2, 5.5 mM D-glucose, 10 mM HEPES, and 0.035% bovine serum albumin (BSA) adjusted to pH 7.4 with NaOH. For measurements in Ca^2+-free bath solutions, a modified HBS without CaCl2 was supplemented with 200 µM ethylene glycol-bis(β-aminoethyl ether)-N,N,N′,N′-tetraacetic acid (EGTA).
The primary compound screen and the generation of concentration response curves in HEK293 cells or in PC12 cells were performed by using a custom-made fluorescence plate imager built into a robotic liquid handling station equipped with a 96-tip multichannel head (Freedom Evo 150, Tecan, Männedorf, Switzerland) as described previously. To this end, trypsinized cell suspensions were loaded with 4 µM fluo-4/AM (Invitrogen, Thermo Fisher Scientific, Waltham, MA, U.S.A.) in cell culture medium for 30 min at 37 °C. After brief centrifugation, cells were resuspended in HBS and dispensed into black pigmented, clear-bottom 384-well plates (Greiner µClear, Frickenhausen, Germany). Plates were mounted on the imager, and fluorescence signals were recorded with a cooled Zyla 5.5 camera (Andor, Belfast, UK) through a 515 nm long pass filter. The image acquisition was controlled by the µManager software (http://micro-manager.org), and excitation with a LED array (470 nm) was synchronized by the camera trigger output. After baseline recording for about 60 s, the compound libraries or serial dilutions of activators or inhibitors were added to the cells by the liquid handling device. When inhibitory potencies were evaluated, a second pipetting step with the respective reference agonist was performed. Fluorescence intensities were calculated from image stacks for each well with ImageJ (National Institutes of Health, Bethesda, MD, U.S.A.), corrected for background signals, and normalized to the initial intensities (F/F0). […]

[2] = system: T2, TRPC7; experiment: Microfluorometric single-cell [Ca2+]i analysis, fura-2-loaded HEK cells stably expressing TRPC7; type: cell-based, human; conditions: 50 µM
T2 construct: expressed in transfected cells
Protocol: The microfluorometric single-cell [Ca^2+]i analysis was performed on an inverted epifluorescence microscope (Carl Zeiss, Jena, Germany) and calibrated as described. Cells were grown on 25 mm coverslips and loaded with 4 µM fura-2/AM (AAT Bioquest, Sunnyvale, CA, U.S.A.) in HBS containing 0.2% BSA for 30 min at 37 °C. […] Experiments were performed either in standard bath solution, containing 1 mM Ca^2+ (black lines and bars), or in a nominally Ca^2+-free HBS buffer, supplemented with 200 µM EGTA (grey lines and bars). Time courses of averaged responses (left), and statistical analysis of 6–11 independent imaging experiments with means and S.D. (right) are shown. Significant differences (p < 0.05, Student´s t-test with paired data: #, with unpaired data: *) are marked for the indicated comparisons; n.s.: difference is statistically not significant.

[3] = system: human protein kinase C (PKC) ε; experiment: Plasma membrane translocation of PKCε-YFP fusion protein; type: cell-based; conditions: 50 µM
[4] = system: PC12 cells (native TRPC3 channel complexes); experiment: Whole-cell patch-clamp recordings in PC12 cells; type: cell-based, rat; conditions: 50 µM artemisinin, whole cell
Protocol: The recordings of TRPC3, TRPC6, or TRPC7 membrane currents in HEK293 or PC12 cells were realized by using a Multiclamp 700B amplifier with a Digidata 1440A digitizer controlled by the PClamp 10 software (all Molecular Devices, Sunnyvale, CA, U.S.A.). Recordings were obtained at room temperature either in the whole-cell or in an outside-out configuration as indicated. Cells were seeded as described above, but at lower density, mounted in a chamber (Warner Instruments, Hamden, CT; U.S.A.), placed onto the stage of an inverted microscope, and perfused with required solution. The standard extracellular solution contained 140 mM NaCl, 5 mM CsCl, 2 mM MgCl2, 1 mM CaCl2, 10 mM HEPES, and 0.035% BSA adjusted to pH 7.4 with NaOH. The composition of standard intracellular solution was 140 mM CsCl, 1 mM MgCl2, 5 mM EGTA, and 10 mM HEPES adjusted to pH 7.25 with CsOH; the osmolarity was 295 mOsm l^−1. In outside-out measurements, the pipette solution contained 5 mM EGTA and 1.1 mM CaCl2 to achieve a calculated free Ca^2+ concentration of 100 nM.
Patch pipettes were pulled from borosilicate glass capillaries BG150F-8P (Science Products, Hofheim, Germany) with a PIP6 pipette puller (HEKA Elektronik, Lambrecht, Germany). […] In all whole-cell measurements, the series resistance was lower than 13 MΩ, and compensated by 70%. If the access was unstable during the experiment (increase in series resistance by more than 15% at the end of the experiment), the cell was omitted from the analysis. To record current/voltage (I/V) curves, voltage ramps (400 mV s^−1) ranging from –100 to +100 mV were applied. Currents were filtered at 3 kHz with a four-pole Bessel filter and sampled at 10 kHz. […]
Figure 9 Artemisinin-induced ionic currents in HEK293 cells and in PC12 cells are sensitive to established TRPC3 inhibitors. […] Concentration–response curves were normalized to responses measured without an inhibitor (controls), and IC50 values were obtained by fitting a four-parameter Hill equation to the data. […]

In the case of `C[C@@H]1CC[C@H]2[C@@H](C)C(=O)O[C@@H]3O[C@@]4(C)CC[C@@H]1[C@]32OO4` [artemisinin], the “response of cells stably transfected with both TRPC3 and TRPC6” value [1] is reported as “in a very similar fashion as HEKTRPC3-YFP cells”, the “[Ca2+]i signal in TRPC7-expressing cells in Ca2+-free bath” value ([2]; nominally Ca2+-free HBS with 200 µM EGTA) is reported as “abolished” and the “[Ca2+]i response in TRPC7-overexpressing cells” value ([2]; standard bath 1 mM Ca2+) is reported as “only a weak [Ca^2+]i signal”. For the same molecule, the “plasma membrane translocation of PKCε-YFP” value [3] was “did not induce a discernible plasma membrane translocation” and the “currents in PC12 cells” value [4] was “induced a Ca^2+ influx and TRPC3-like currents”.
